Reference: US20230072860A1, “ISOXAZOLINE OXIME FORMATE COMPOUND, PREPARATION METHOD THEREFOR, HERBICIDAL COMPOSITION AND USE THEREOF” (QINGDAO KINGAGROOT CHEMICAL COMPOUND CO., LTD., priority 2020, published 2023)

Assays:
Assay in all cases: Experiment on weeding effect in post-emergence stage
Type in all cases: in vivo
Conditions in all cases: dose 15 g a.i./ha, fresh weight control rate level
Amaranthus retroflexus = tested on: Amaranthus retroflexus
Source text: (§1) Experiment on weeding effect in post-emergence stage:
(§2) Monocotyledonous and dicotyledonous weed seeds (Descurainia sophia, Capsella bursa-pastoris, Abutilon theophrasti, Galium aparine, Stellaria media, Lithospermum arvense, Rorippa indica, Alopecurus aequalis, Alopecurus japonicus, Beckmannia syzigachne, Sclerochloa dura, Conyza Canadensis, Phleum paniculatum, Veronica didyma Tenore, Eleusine indica, Bromus japonicus, Aegilops tauschii, Phalaris arundinacea, Amaranthus retroflexus, Chenopodium album, Commelina communis, Sonchus arvensis, Convolvulus arvensis, Cirsium setosum, Solanum nigrum, Acalypha australis, Digitaria sanguinalis, Echinochloa crusgalli, Setaria viridis, Setaria glauca, Leptochloa chinensis, Monochoria vaginalis, Sagittaria trolia, Scirpus juncoides, Cyperus rotundus, Cyperus iria, Cyperus difformis, Elmbristylis, Portulaca oleracea, Xanthium sibiricum, Pharbitis nil) and major crop seeds (wheat, corn, rice, soybean, cotton, oilseed rape, millet, sorghum, potato, sesame, ricinus) were placed in plastic pots filled with soil, then covered with 0.5-2 cm of soil, allowed to grow in a good greenhouse environment. After 2 weeks of sowing, the test plants were treated in the 2-3 leaf stage. The tested compounds of the present invention were respectively dissolved in acetone, then added with Tween 80 and 1.5 liter/ha of emulsifiable concentrate of methyl oleate as synergist, diluted with a certain amount of water to obtain a solution with a certain concentration, and sprayed with a spray tower onto the plants. After the application, the plants were cultured for 3 weeks in the greenhouse, and then the experimental results of the weeding were counted. The doses of the used compounds were 500, 250, 125, 60, 15 g a.i./ha, and the averages were obtained by repeating for three times.

Galium aparine = tested on: Galium aparine
Source text: as §1, §2

Eleusine indica = tested on: Eleusine indica
Source text: as §1, §2

Digitaria sanguinalis = tested on: Digitaria sanguinalis
Source text: as §1, §2

Leptochloa chinensis = tested on: Leptochloa chinensis
Source text: as §1, §2

Setaria viridis = tested on: Setaria viridis
Source text: as §1, §2

Abutilon theophrasti = tested on: Abutilon theophrasti
Source text: as §1, §2

Echinochloa crusgalli = tested on: Echinochloa crusgalli
Source text: as §1, §2

Veronica didyma Tenore = tested on: Veronica didyma Tenore
Source text: as §1, §2

Cc1ccc(C=NOC(=O)C2(C)CC(c3cc(-n4c(=O)n(C)c(=S)n(C)c4=O)c(F)cc3Cl)=NO2)o1 (mixture of isomers) [Compound 117]
weeding effect in post-emergence stage, Amaranthus retroflexus (level) (Amaranthus retroflexus): 5 (Level 5: growth control rate is above 85%)
weeding effect in post-emergence stage, Galium aparine (level) (Galium aparine): 5 (Level 5: growth control rate is above 85%)
weeding effect in post-emergence stage, Eleusine indica (level) (Eleusine indica): 5 (Level 5: growth control rate is above 85%)
weeding effect in post-emergence stage, Digitaria sanguinalis (level) (Digitaria sanguinalis): 5 (Level 5: growth control rate is above 85%)
weeding effect in post-emergence stage, Leptochloa chinensis (level) (Leptochloa chinensis): 5 (Level 5: growth control rate is above 85%)
weeding effect in post-emergence stage, Setaria viridis (level) (Setaria viridis): 5 (Level 5: growth control rate is above 85%)
weeding effect in post-emergence stage, Abutilon theophrasti (level) (Abutilon theophrasti): 5 (Level 5: growth control rate is above 85%)
weeding effect in post-emergence stage, Echinochloa crusgalli (level) (Echinochloa crusgalli): 5 (Level 5: growth control rate is above 85%)
weeding effect in post-emergence stage, Veronica didyma Tenore (level) (Veronica didyma Tenore): 5 (Level 5: growth control rate is above 85%)

Cc1ccc(C=NOC(=O)C2(C)CC(c3cc(-n4c(=O)n(C)c(=S)n(C)c4=O)c(F)cc3Cl)=NO2)s1 (mixture of isomers) [Compound 118]
weeding effect in post-emergence stage, Amaranthus retroflexus (level) (Amaranthus retroflexus): 5 (Level 5: growth control rate is above 85%)
weeding effect in post-emergence stage, Galium aparine (level) (Galium aparine): 5 (Level 5: growth control rate is above 85%)
weeding effect in post-emergence stage, Eleusine indica (level) (Eleusine indica): 5 (Level 5: growth control rate is above 85%)
weeding effect in post-emergence stage, Digitaria sanguinalis (level) (Digitaria sanguinalis): 5 (Level 5: growth control rate is above 85%)
weeding effect in post-emergence stage, Leptochloa chinensis (level) (Leptochloa chinensis): 5 (Level 5: growth control rate is above 85%)
weeding effect in post-emergence stage, Setaria viridis (level) (Setaria viridis): 5 (Level 5: growth control rate is above 85%)
weeding effect in post-emergence stage, Abutilon theophrasti (level) (Abutilon theophrasti): 5 (Level 5: growth control rate is above 85%)
weeding effect in post-emergence stage, Echinochloa crusgalli (level) (Echinochloa crusgalli): 5 (Level 5: growth control rate is above 85%)
weeding effect in post-emergence stage, Veronica didyma Tenore (level) (Veronica didyma Tenore): 5 (Level 5: growth control rate is above 85%)

CCOC(C)=NOC(=O)C1(C)CC(c2cc(-n3c(=O)n(C)c(=S)n(C)c3=O)c(F)cc2Cl)=NO1 (mixture of isomers) [Compound 120]
weeding effect in post-emergence stage, Amaranthus retroflexus (level) (Amaranthus retroflexus): 5 (Level 5: growth control rate is above 85%)
weeding effect in post-emergence stage, Galium aparine (level) (Galium aparine): 5 (Level 5: growth control rate is above 85%)
weeding effect in post-emergence stage, Eleusine indica (level) (Eleusine indica): 5 (Level 5: growth control rate is above 85%)
weeding effect in post-emergence stage, Digitaria sanguinalis (level) (Digitaria sanguinalis): 5 (Level 5: growth control rate is above 85%)
weeding effect in post-emergence stage, Leptochloa chinensis (level) (Leptochloa chinensis): 5 (Level 5: growth control rate is above 85%)
weeding effect in post-emergence stage, Setaria viridis (level) (Setaria viridis): 5 (Level 5: growth control rate is above 85%)
weeding effect in post-emergence stage, Abutilon theophrasti (level) (Abutilon theophrasti): 5 (Level 5: growth control rate is above 85%)
weeding effect in post-emergence stage, Echinochloa crusgalli (level) (Echinochloa crusgalli): 5 (Level 5: growth control rate is above 85%)
weeding effect in post-emergence stage, Veronica didyma Tenore (level) (Veronica didyma Tenore): 5 (Level 5: growth control rate is above 85%)

COCC(C)=NOC(=O)C1(C)CC(c2cc(-n3c(=O)n(C)c(=S)n(C)c3=O)c(F)cc2Cl)=NO1 (mixture of isomers) [Compound 121]
weeding effect in post-emergence stage, Amaranthus retroflexus (level) (Amaranthus retroflexus): 5 (Level 5: growth control rate is above 85%)
weeding effect in post-emergence stage, Galium aparine (level) (Galium aparine): 5 (Level 5: growth control rate is above 85%)
weeding effect in post-emergence stage, Eleusine indica (level) (Eleusine indica): 5 (Level 5: growth control rate is above 85%)
weeding effect in post-emergence stage, Digitaria sanguinalis (level) (Digitaria sanguinalis): 5 (Level 5: growth control rate is above 85%)
weeding effect in post-emergence stage, Leptochloa chinensis (level) (Leptochloa chinensis): 5 (Level 5: growth control rate is above 85%)
weeding effect in post-emergence stage, Setaria viridis (level) (Setaria viridis): 5 (Level 5: growth control rate is above 85%)
weeding effect in post-emergence stage, Abutilon theophrasti (level) (Abutilon theophrasti): 5 (Level 5: growth control rate is above 85%)
weeding effect in post-emergence stage, Echinochloa crusgalli (level) (Echinochloa crusgalli): 5 (Level 5: growth control rate is above 85%)
weeding effect in post-emergence stage, Veronica didyma Tenore (level) (Veronica didyma Tenore): 5 (Level 5: growth control rate is above 85%)

CC(C)=NOC(=O)C1(C)CC(c2nc(-n3c(=O)n(C)c(=S)n(C)c3=O)c(F)cc2Cl)=NO1 (racemic) [Compound 16]
weeding effect in post-emergence stage, Amaranthus retroflexus (level) (Amaranthus retroflexus): 5 (Level 5: growth control rate is above 85%)
weeding effect in post-emergence stage, Galium aparine (level) (Galium aparine): 5 (Level 5: growth control rate is above 85%)
weeding effect in post-emergence stage, Eleusine indica (level) (Eleusine indica): 5 (Level 5: growth control rate is above 85%)
weeding effect in post-emergence stage, Digitaria sanguinalis (level) (Digitaria sanguinalis): 5 (Level 5: growth control rate is above 85%)
weeding effect in post-emergence stage, Leptochloa chinensis (level) (Leptochloa chinensis): 5 (Level 5: growth control rate is above 85%)
weeding effect in post-emergence stage, Setaria viridis (level) (Setaria viridis): 5 (Level 5: growth control rate is above 85%)
weeding effect in post-emergence stage, Abutilon theophrasti (level) (Abutilon theophrasti): 5 (Level 5: growth control rate is above 85%)
weeding effect in post-emergence stage, Echinochloa crusgalli (level) (Echinochloa crusgalli): 5 (Level 5: growth control rate is above 85%)
weeding effect in post-emergence stage, Veronica didyma Tenore (level) (Veronica didyma Tenore): 5 (Level 5: growth control rate is above 85%)

CCC(CC)=NOC(=O)C1(C)CC(c2cc(-n3c(=O)n(C)c(=S)n(C)c3=O)c(F)cc2Cl)=NO1 (racemic) [Compound 83]
weeding effect in post-emergence stage, Amaranthus retroflexus (level) (Amaranthus retroflexus): 5 (Level 5: growth control rate is above 85%)
weeding effect in post-emergence stage, Galium aparine (level) (Galium aparine): 5 (Level 5: growth control rate is above 85%)
weeding effect in post-emergence stage, Eleusine indica (level) (Eleusine indica): 5 (Level 5: growth control rate is above 85%)
weeding effect in post-emergence stage, Digitaria sanguinalis (level) (Digitaria sanguinalis): 5 (Level 5: growth control rate is above 85%)
weeding effect in post-emergence stage, Leptochloa chinensis (level) (Leptochloa chinensis): 5 (Level 5: growth control rate is above 85%)
weeding effect in post-emergence stage, Setaria viridis (level) (Setaria viridis): 5 (Level 5: growth control rate is above 85%)
weeding effect in post-emergence stage, Abutilon theophrasti (level) (Abutilon theophrasti): 5 (Level 5: growth control rate is above 85%)
weeding effect in post-emergence stage, Echinochloa crusgalli (level) (Echinochloa crusgalli): 5 (Level 5: growth control rate is above 85%)
weeding effect in post-emergence stage, Veronica didyma Tenore (level) (Veronica didyma Tenore): 5 (Level 5: growth control rate is above 85%)

CC(C)=NOC(=O)C1(C)CC(c2cc(-n3c(=O)n(C)c(=S)n(C)c3=O)c(F)cc2Cl)=NO1 (stereo not drawn) [Compound 10]
weeding effect in post-emergence stage, Amaranthus retroflexus (level) (Amaranthus retroflexus): 5 (Level 5: growth control rate is above 85%)
weeding effect in post-emergence stage, Galium aparine (level) (Galium aparine): 5 (Level 5: growth control rate is above 85%)
weeding effect in post-emergence stage, Eleusine indica (level) (Eleusine indica): 5 (Level 5: growth control rate is above 85%)
weeding effect in post-emergence stage, Digitaria sanguinalis (level) (Digitaria sanguinalis): 5 (Level 5: growth control rate is above 85%)
weeding effect in post-emergence stage, Leptochloa chinensis (level) (Leptochloa chinensis): 5 (Level 5: growth control rate is above 85%)
weeding effect in post-emergence stage, Setaria viridis (level) (Setaria viridis): 5 (Level 5: growth control rate is above 85%)
weeding effect in post-emergence stage, Abutilon theophrasti (level) (Abutilon theophrasti): 5 (Level 5: growth control rate is above 85%)
weeding effect in post-emergence stage, Echinochloa crusgalli (level) (Echinochloa crusgalli): 5 (Level 5: growth control rate is above 85%)
weeding effect in post-emergence stage, Veronica didyma Tenore (level) (Veronica didyma Tenore): 5 (Level 5: growth control rate is above 85%)

C/C=N/OC(=O)C1(C)CC(c2cc(-n3c(=O)n(C)c(=S)n(C)c3=S)c(F)cc2Cl)=NO1 (stereo not drawn) [Compound 54]
weeding effect in post-emergence stage, Amaranthus retroflexus (level) (Amaranthus retroflexus): 5 (Level 5: growth control rate is above 85%)
weeding effect in post-emergence stage, Galium aparine (level) (Galium aparine): 5 (Level 5: growth control rate is above 85%)
weeding effect in post-emergence stage, Eleusine indica (level) (Eleusine indica): 5 (Level 5: growth control rate is above 85%)
weeding effect in post-emergence stage, Digitaria sanguinalis (level) (Digitaria sanguinalis): 5 (Level 5: growth control rate is above 85%)
weeding effect in post-emergence stage, Leptochloa chinensis (level) (Leptochloa chinensis): 5 (Level 5: growth control rate is above 85%)
weeding effect in post-emergence stage, Setaria viridis (level) (Setaria viridis): 5 (Level 5: growth control rate is above 85%)
weeding effect in post-emergence stage, Abutilon theophrasti (level) (Abutilon theophrasti): 5 (Level 5: growth control rate is above 85%)
weeding effect in post-emergence stage, Echinochloa crusgalli (level) (Echinochloa crusgalli): 5 (Level 5: growth control rate is above 85%)
weeding effect in post-emergence stage, Veronica didyma Tenore (level) (Veronica didyma Tenore): 5 (Level 5: growth control rate is above 85%)
